Results as given in patent US9695155B2, “Herbicidal substituted pyrimidinyloxy benzene compounds” (E. I. DU PONT DE NEMOURS AND COMPANY, priority 2013, dated 2017).

Columns and labels:
blackgrass [1] = test: Test C postemergence; format: in vivo, Alopecurus myosuroides; conditions: for Plant response rating, Blackgrass / Blackgrass plant response rating: scale 0 to 100 (0 no effect, 100 complete control)
Text: (§1) Seeds of plant species selected from blackgrass (Alopecurus myosuroides), Italian ryegrass (Lolium multiflorum), wheat, winter (winter wheat, Triticum aestivum), galium (catchweed bedstraw, Galium aparine), corn (Zea mays), large (Lg) crabgrass (Digitaria sanguinalis), giant foxtail (Setaria faberii), johnsongrass (Sorghum halepense), lambsquarters (Chenopodium album), morningglory (Ipomoea coccinea), yellow nutsedge (Cyperus esculentus), pigweed (Amaranthus retroflexus), ragweed (common ragweed, Ambrosia elatior), soybean (Glycine max), barnyardgrass (Echinochloa crus-galli), oilseed rape (Brassica napus), waterhemp (common waterhemp, Amaranthus rudis), kochia (Kochia scoparia), wild oat (Avena fatua), surinam grass (Brachiaria decumbens), foxtail, green (green foxtail, Setaria viridis), goosegrass (Eleusine indica), bromegrass, downy (downy bromegrass, Bromus tectorum), nightshade (eastern black nightshade, Solanum ptycanthum), cocklebur (common cocklebur, Xanthium strumarium), cupgrass, woolly (woolly cupgrass, Eriochloa villosa), bermudagrass (Cynodon dactylon), sunflower, (common oilseed sunflower, Helianthus annuus), Russian thistle (Salsola kali), and velvetleaf (Abutilon theophrasti) were planted into a blend of loam soil and sand and treated preemergence with test chemicals formulated in a non-phytotoxic solvent mixture which included a surfactant.
(§2) At the same time, plants selected from these crop and weed species and also barley, winter (winter barley, Hordeum vulgare), windgrass (Apera spica-venti), chickweed (common chickweed, Stellaria media), deadnettle (henbit deadnettle, Lamium amplexicaule), and canarygrass (littleseed canarygrass, Phalaris minor) were planted in pots containing Redi-Earth® planting medium (Scotts Company, 14111 Scottslawn Road, Marysville, Ohio 43041) comprising spaghnum peat moss, vermiculite, wetting agent and starter nutrients and treated with postemergence applications of test chemicals formulated in the same manner. Plants ranged in height from 2 to 18 cm (1- to 4-leaf stage) for postemergence treatments. Treated plants and controls were maintained in a greenhouse for 13 to 15 days, after which time all species were compared to controls and visually evaluated. Plant response ratings, summarized in Table C, are based on a scale of 0 to 100 where 0 is no effect and 100 is complete control. A dash (-) response means no test result.

johnsongrass = test: Test C postemergence; format: in vivo, Sorghum halepense; conditions: for Plant response rating, Johnsongrass / Johnsongrass plant response rating: scale 0 to 100 (0 no effect, 100 complete control); for Johnsongrass plant response rating: 31 g ai/ha
Text: as §1, §2

wheat = test: Test A postemergence; format: in vivo, Triticum aestivum
In short: (§3)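 Injury scores run from 0, no effect, to 100, complete control, judged by eye against untreated plants roughly 10 days after treatment. Chemicals carried a surfactant in a non-phytotoxic solvent and went onto loam–sand soil preemergence or onto one- to two-leaf seedlings postemergence.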

barnyardgrass [2] = test: Test A preemergence; format: in vivo, Echinochloa crus-galli
In short: as §3

Heteranthera limosa = test: Test B flooded paddy test; format: in vivo; conditions: Flood, 250 g ai/ha; 0 to 100 scale where 0 is no effect and 100 is complete control
In short: (§4)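 Evaluation is visual, against untreated controls, 13 to 15 days after treatment. Before treatment, plants reached the 2-leaf stage; pots were then flooded 3 cm deep, compound was added to the water, and that level was maintained. Ratings run 0 to 100, with 100 meaning complete control.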

wild oat = test: Test C postemergence; format: in vivo, Avena fatua; conditions: for Plant response rating, Oat, Wild / Oat, Wild plant response rating: scale 0 to 100 (0 no effect, 100 complete control); for Oat, Wild plant response rating: 31 g ai/ha
Text: as §1, §2

barnyardgrass [3] = test: Test B flooded paddy test; format: in vivo, Echinochloa crus-galli; conditions: Flood, 250 g ai/ha; 0 to 100 scale where 0 is no effect and 100 is complete control
In short: as §4

morningglory [4] = test: Test A preemergence; format: in vivo, Ipomoea spp.
In short: as §3

blackgrass [5] = test: Test C preemergence; format: in vivo, Alopecurus myosuroides; conditions: for Blackgrass plant response rating: preemergence
In short: (§5)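 Plants were kept under greenhouse conditions for 13–15 days following spray. Pre-emergent application went to soil (loam–sand), post-emergent to foliage at 1–4 leaves. Evaluation: visual, percent control against untreated checks.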

large (Lg) crabgrass [6] = test: Test A postemergence; format: in vivo, Digitaria sanguinalis; conditions: 0 to 100 scale where 0 is no effect and 100 is complete control
In short: as §3

Italian ryegrass = test: Test C preemergence; format: in vivo, Lolium multiflorum; conditions: for Ryegrass, Italian plant response rating: preemergence
In short: as §5

morningglory [7] = test: Test A postemergence; format: in vivo, Ipomoea spp.; conditions: 0 to 100 scale where 0 is no effect and 100 is complete control
In short: as §3

large (Lg) crabgrass [8] = test: Test A preemergence; format: in vivo, Digitaria sanguinalis
In short: as §3

wheat, winter = test: Test C preemergence; format: in vivo, Triticum aestivum; conditions: for Wheat plant response rating: preemergence
In short: as §5

corn = test: Test A preemergence; format: in vivo, Zea mays
In short: as §3

large (Lg) crabgrass [9] = test: Test C preemergence; format: in vivo, Digitaria sanguinalis; conditions: for Crabgrass, Large plant response rating: preemergence
In short: as §5

[10] = 16 g ai/ha, postemergence, 0 is no effect, 100 is complete control
[11] = 125 g ai/ha, postemergence, visual rating
[12] = 125 g ai/ha, 0 to 100 scale where 0 is no effect and 100 is complete control
[13] = 31 g ai/ha, postemergence, visual rating, 13 to 15 days
[14] = postemergence, visual rating, 13 to 15 days
[15] = 500 g ai/ha, 0 to 100 scale where 0 is no effect and 100 is complete control
[16] = 16 g ai/ha, scale 0 to 100 (0 no effect, 100 complete control)
[17] = 125 g ai/ha, scale 0 (no effect) to 100 (complete control)
[18] = Preemergence, 62 g ai/ha, scale 0 to 100, 0 no effect, 100 complete control
[19] = Postemergence, 62 g ai/ha, 13 to 15 days

FCc1cccc(Oc2ncc(Br)cn2)c1-n1cc(C(F)(F)F)cn1 [Compound 120]
Plant response rating (0 to 100), Blackgrass (blackgrass [1]; [10]): 0 | Plant response rating, Blackgrass (blackgrass [1]; [11]): 30 | Plant response rating, Blackgrass (blackgrass [1]; Postemergence, 31 g ai/ha, 13 to 15 days): 5 | Plant response rating, Blackgrass (blackgrass [1]; Postemergence, 62 g ai/ha): 5 | Plant response rating (0 to 100), Johnsongrass (johnsongrass; [10]): 0 | Plant response rating, Johnsongrass (johnsongrass; [11]): 10 | Plant response rating, Johnsongrass (johnsongrass; Postemergence, 62 g ai/ha): 5 | Plant response rating, Wheat (wheat; 31 g ai/ha, 0 to 100 scale, 0 no effect, 100 complete control): 0 | Barnyardgrass plant response rating (0 to 100 scale) (barnyardgrass [2]; 31 g ai/ha): 20 | Plant response rating, Barnyardgrass (barnyardgrass [2]; [12]): 70 | Plant response rating, Ducksalad (Heteranthera limosa): 95 | Plant response rating (0 to 100), Oat, Wild (wild oat; [10]): 0 | Plant response rating, Oat, Wild (wild oat; [11]): 5 | Plant response rating, Oat, Wild (wild oat; Postemergence, 62 g ai/ha): 5 | Plant response rating, Barnyardgrass (barnyardgrass [3]): 0

Fc1cccc(Oc2ncc(Cl)cn2)c1-n1cc(C2CC2)nn1 [Compound 155]
Plant response rating (0 to 100), Blackgrass (blackgrass [1]; [10]): 0 | Blackgrass plant response rating (blackgrass [1]; [13]): 5 | Plant response rating, Blackgrass (blackgrass [1]; [11]): 5 | Plant response rating, Blackgrass (blackgrass [1]; Postemergence, 62 g ai/ha): 5 | Plant response rating (0 to 100), Johnsongrass (johnsongrass; [10]): 0 | Johnsongrass plant response rating (johnsongrass; [14]): 0 | Plant response rating, Johnsongrass (johnsongrass; [11]): 5 | Plant response rating, Johnsongrass (johnsongrass; Postemergence, 62 g ai/ha): 5 | Plant response rating, Wheat (wheat; 1000 g ai/ha, 0 to 100 scale, 0 no effect, 100 complete control): 90 | Barnyardgrass plant response rating (barnyardgrass [2]; 1000 g ai/ha, 0 to 100 scale, 0 no effect, 100 complete control, approx. 10 days): 100 | Plant response rating, Ducksalad (Heteranthera limosa): 100 | Plant response rating (0 to 100), Oat, Wild (wild oat; [10]): 0 | Oat, Wild plant response rating (wild oat; [14]): 0 | Plant response rating, Oat, Wild (wild oat; [11]): 25 | Plant response rating, Oat, Wild (wild oat; Postemergence, 62 g ai/ha): 5 | Plant response rating, Barnyardgrass (barnyardgrass [3]): 40

CCOc1cnn(-c2ccccc2Oc2ncc(Cl)cn2)c1 [Compound 187]
Wheat plant response rating (wheat; [12]): 20 | Plant response rating, Wheat (wheat; [15]): 60 | Morningglory plant response rating (0 to 100 scale) (morningglory [4]; 125 g ai/ha): 0 | Morningglory plant response rating (morningglory [4]; [15]): 50 | Barnyardgrass plant response rating (0 to 100 scale, 0 is no effect, 100 is complete control) (barnyardgrass [2]; 125 g ai/ha): 80 | Barnyardgrass plant response rating (barnyardgrass [2]; [15]): 100 | Blackgrass plant response rating (blackgrass [5]; [16]): 0 | Blackgrass plant response rating (blackgrass [5]; [17]): 100 | Plant response rating, Blackgrass (blackgrass [5]; [18]): 30 | Plant response rating, Ducksalad (Heteranthera limosa): 65 | Crabgrass, Large plant response rating (large (Lg) crabgrass [6]; 125 g ai/ha): 60 | Plant response rating, Crabgrass, Large (large (Lg) crabgrass [6]; 500 g ai/ha): 100 | Ryegrass, Italian plant response rating (Italian ryegrass; [16]): 0 | Ryegrass, Italian plant response rating (Italian ryegrass; [17]): 5 | Plant response rating, Ryegrass, Italian (Italian ryegrass; [18]): 0 | Morningglory plant response rating (morningglory [7]; 125 g ai/ha): 70 | Plant response rating, Morningglory (morningglory [7]; 500 g ai/ha): 100 | Crabgrass, Large plant response rating (0 to 100 scale) (large (Lg) crabgrass [8]; 125 g ai/ha): 100 | Crabgrass, Large plant response rating (large (Lg) crabgrass [8]; [15]): 100 | Wheat plant response rating (wheat, winter; [16]): 0 | Wheat plant response rating (wheat, winter; [17]): 0 | Plant response rating, Wheat (wheat, winter; [18]): 0 | Corn plant response rating (0 to 100 scale) (corn; 125 g ai/ha): 0 | Corn plant response rating (corn; [15]): 40 | Plant response rating, Barnyardgrass (barnyardgrass [3]): 0 | Crabgrass, Large plant response rating (large (Lg) crabgrass [9]; [16]): 5 | Crabgrass, Large plant response rating (large (Lg) crabgrass [9]; [17]): 100 | Plant response rating, Crabgrass, Large (large (Lg) crabgrass [9]; [18]): 100

N#Cc1cccc(Oc2ncc(Cl)cn2)c1-n1cc(-n2ccc(C(F)(F)F)n2)cn1 [Compound 284]
Blackgrass plant response rating (blackgrass [1]; [13]): 5 | Plant response rating, Blackgrass (blackgrass [1]; [11]): 5 | Plant response rating (0 to 100), Blackgrass (blackgrass [1]; 250 g ai/ha, postemergence): 5 | Plant response rating, Blackgrass (blackgrass [1]; [19]): 5 | Johnsongrass plant response rating (johnsongrass; [14]): 5 | Plant response rating, Johnsongrass (johnsongrass; [11]): 20 | Plant response rating (0 to 100), Johnsongrass (johnsongrass; 250 g ai/ha, postemergence): 20 | Plant response rating, Johnsongrass (johnsongrass; [19]): 5 | Plant response rating, Wheat (wheat; 125 g ai/ha, 0 to 100 scale, 0 no effect, 100 complete control): 20 | Plant response rating, Wheat (wheat; [15]): 20 | Barnyardgrass plant response rating (0 to 100 scale, 0 is no effect, 100 is complete control) (barnyardgrass [2]; 125 g ai/ha): 60 | Barnyardgrass plant response rating (barnyardgrass [2]; [15]): 90 | Plant response rating, Ducksalad (Heteranthera limosa): 80 | Oat, Wild plant response rating (wild oat; [14]): 5 | Plant response rating, Oat, Wild (wild oat; [11]): 5 | Plant response rating (0 to 100), Oat, Wild (wild oat; 250 g ai/ha, postemergence): 5 | Plant response rating, Oat, Wild (wild oat; [19]): 5 | Plant response rating, Barnyardgrass (barnyardgrass [3]): 0
